Test results published in ChEMBL document CHEMBL1128242, “Polyiodinated triglyceride analogs as potential computed tomography imaging agents for the liver” (J Med Chem, 1995).

Key:
Assay type in all cases: ADME, organism-based
Rattus norvegicus [1] = test: Distribution of radioactivity was determined in plasma at 3h after intravenous administration of [125I]-labeled 2-oleoglycerol 1,3-Bis-[omega-(3-amino-2,4,6-triiodophenyl)alkanoates] in rats; settings: in vivo
Rattus norvegicus [2] = test: Distribution of radioactivity was determined in blood at 24 hr after intravenous administration of 1,3-Disubstituted Triacylglycerols in rats; settings: in vivo
Rattus norvegicus [3] = test: Distribution of radioactivity was determined in blood at 24 hr after intravenous administration of [125I]-labeled 2-oleoglycerol 1,3-Bis-[omega-(3-amino-2,4,6-triiodophenyl)alkanoates] in rats; settings: in vivo
Rattus norvegicus [4] = test: Distribution of radioactivity was determined in spleen at 30 min after intravenous administration of [125I]-labeled 2-oleoglycerol 1,3-Bis-[omega-(3-amino-2,4,6-triiodophenyl)alkanoates] in rats; settings: in vivo, 0.5 h
Rattus norvegicus [5] = test: Distribution of radioactivity was determined in liver at 3h after intravenous administration of [125I]-labeled 2-oleoglycerol 1,3-Bis-[omega-(3-amino-2,4,6-triiodophenyl)alkanoates] in rats; settings: in vivo
Rattus norvegicus [6] = test: Polyacrylamide Gel Electrophoresis (PAGE) to determined the concentration of low density lipoprotein (LDL) in rats after iv administration of [125I]-labeled 2-Oleolyl 1,3-disubstituted triglycerols was reported; settings: in vivo
Rattus norvegicus [7] = test: Distribution of radioactivity was determined in blood at 3h after intravenous administration of 1,3-Disubstituted Triacylglycerols in rats; settings: in vivo
Rattus norvegicus [8] = test: Distribution of radioactivity was determined in spleen at 30 min after intravenous administration of 1,3-Disubstituted Triacylglycerols in rats; settings: in vivo, 0.5 h
Rattus norvegicus [9] = test: Distribution of radioactivity was determined in blood at 30 min after intravenous administration of 1,3-Disubstituted Triacylglycerols in rats; settings: in vivo, 0.5 h
Rattus norvegicus [10] = test: Distribution of radioactivity was determined in kidney at 30 min after intravenous administration of [125I]-labeled 2-oleoglycerol 1,3-Bis-[omega-(3-amino-2,4,6-triiodophenyl)alkanoates] in rats; settings: in vivo, 0.5 h
Rattus norvegicus [11] = test: Polyacrylamide Gel Electrophoresis (PAGE) to determined the concentration of stacking gel(SG) in rats after iv administration of [125I]-labeled 2-Oleolyl 1,3-disubstituted triglycerols was reported; settings: in vivo
Rattus norvegicus [12] = test: Analysis of lipid-soluble radioactivity in plasma 0.5 hour after iv administration of [125I]-labeled 2-Oleoyl 1,3-disubstituted Triacylglycerols expressed as %parent compound (by TLC with authentic [125I]-labeled standard) from rat; settings: in vivo
Rattus norvegicus [13] = test: Distribution of radioactivity was determined in plasma at 24 hr after intravenous administration of [125I]-labeled 2-oleoglycerol 1,3-Bis-[omega-(3-amino-2,4,6-triiodophenyl)alkanoates] in rats; design: unit not given here; settings: in vivo

| Distribution of radioactivity (Rattus norvegicus [1]) [% dose/g] | Distribution of radioactivity (Rattus norvegicus [2]) [% dose/organ] | Distribution of radioactivity (Rattus norvegicus [3]) [% dose/g] | Distribution of radioactivity (Rattus norvegicus [4]) [% dose/g] | Distribution of radioactivity (Rattus norvegicus [5]) [% dose/g] | Radioactivity (Rattus norvegicus [6]) [%] | Distribution of radioactivity (Rattus norvegicus [7]) [% dose/organ] | Distribution of radioactivity (Rattus norvegicus [8]) [% dose/organ] | Distribution of radioactivity (Rattus norvegicus [9]) [% dose/organ] | Distribution of radioactivity (Rattus norvegicus [10]) [% dose/g] | Radioactivity (Rattus norvegicus [11]) [%] | Lipid-soluble radioactivity (Rattus norvegicus [12]) | Distribution of radioactivity (Rattus norvegicus [13]) | Compound |
| --- | --- | --- | --- | --- | --- | --- | --- | --- | --- | --- | --- | --- | --- |
| 0.13 | 1.5 | 0.15 | 31.7 | 13.8 | 3.2 | 0.9 | 13.7 | 5.8 | 0.14 | 80.9 | 85.8 | 0.24 | CCCCCCCC/C=C/CCCCCCCC(=O)OC(COC(=O)CCCc1c(I)cc(I)c(N)c1I)COC(=O)CCCc1c(I)cc(I)c(N)c1I |
| 0.09 | 0.4 | 0.04 | 27.6 | 10.9 | 8.3 | 0.7 | 13 | 5.1 | 0.11 | 67.3 | – | 0.05 | CCCCCCCC/C=C/CCCCCCCC(=O)OC(COC(=O)CCc1c(I)cc(I)c(N)c1I)COC(=O)CCc1c(I)cc(I)c(N)c1I |
